Test results reported in PubChem BioAssay AID1918934 (Molecular Pharmacology Branch, DTP, NCI, 2023).
Where “and” joins values, the source holds several entries; their conditions need not be identical. Equal entries are not always repeated.

System: 292921-168-R-J2-PDC complex spheroid viability
Experiment: Anticancer human tumor 292921-168-R-J2-PDC patient-derived pancreatic carcinoma cell line growth inhibition
Details: for viability, T/C: stronger effect = lower value; for IC50: curve of compound
Description: Multicellular complex tumor spheroid response to LSD1 Inhibitor Iadademstat in combination with a variety of drugs and investigational agents in selected tumor cell lines
The current study was undertaken to assess response to LSD1 inhibitors in combination with standard-of-care drugs and investigational agents in solid tumor complex spheroid models as well as in the K-562 leukemia. Complex spheroids include a stromal component modeled by human endothelial cells (HUVEC) and fibroblasts modeled by human mesenchymal stem cells (MSCs). The concentration ranges selected for each drug and investigational agent were based upon clinically achievable concentrations if the clinical Cmax of the agent was known.
Compounds. The drugs and investigational agents used in this study are listed on Table 1. All of the agents used, including staurosporine (NSC755774) and gemcitabine (NSC613327), were obtained from the Developmental Therapeutics Program, NCI. FDA-approved anticancer drugs are available from the NCI at http://dtp.nci.nih.gov/branches/dscb/oncology_drugset_explanation.html. Drugs and investigational agents were >95% pure by proton nuclear magnetic resonance (NMR) and liquid chromatography/mass spectrometry (LC/MS). Stock solutions were prepared at 400x in DMSO, stored at -70 degrees C, and diluted in fresh medium prior to their use. The final concentration of DMSO in cell culture wells never exceeded 0.25% (v/v). The FDA-approved anticancer drug set is available from the Developmental Therapeutics Program at https://dtp.cancer.gov/organization/dscb/obtaining/available_plates.htm. All drugs and investigational agents were tested over a range starting from a high concentration at or near the clinical Cmax and decreasing in half-log increments. If the clinical Cmax for an agent had not been determined, the highest concentration tested was 10 microM.
Cell Lines. The patient-derived cancer cell (PDC) lines: 292921-168-R-J2-PDC, K24384-001-R-PDC, and 521955-158-R2-J5-PDC pancreatic carcinomas, 556581-035-R-J1 ovarian carcinoma, 324938-238-R-J1-PDC, 855422-203-R-J1-PDC and 883617-216-R-J1-PDC urothelial bladder carcinomas, 743489-274-T-PDC renal cell carcinoma, 138582-R-J1 Merkel cell tumor, K60290-347-R-J1 and K57222-313-R-J1-PDC glioblastomas, 653999-131-R-J2-PDC, LG0703-F948-PDC, and 349418-098-R-PDC non-small cell lung carcinomas, 885512-296-R-J2-PDC, 171881-019-R-J1-PDC breast carcinomas and 186277-243-T-J2-PDC and 233499-124-R-J2-PDC colon carcinomas were obtained from the NCI Patient-Derived Models Repository (PDMR, https://pdmr.cancer.gov). The established cell lines NCI/ADR-RES (RRID:CVCL_14520 and OVCAR-5 (RRID:CVCL_1628) ovarian carcinomas, 786-O (RRID:CVCL_1051) and A498 (RRID:CVCL_A498) renal cell carcinoma, NCI-H211 (ATCC, cat. CRL-5824; RRID:CVCL_1529), NCI-H196 (ATCC, cat. CRL-5823, RRID:CVCL_1509), SW 1271 (ATCC, cat. CRL-2177, RRID:CVCL_1716) and NCI-H1876 (ATCC, cat. CRL-5902, RRID:CVCL_1503) small cell lung carcinomas, MDA-MB-231 (RRID:CVCL_0062) and MDA-MB-468 (RRID:CVCL_0419)breast carcinomas (10-12). Pooled donor human umbilical vein endothelial cells (HUVEC, Lonza, cat. CC-2519) and human mesenchymal stem cells (hMSC, Lonza, cat. PT-2501) were purchased from Lonza (Walkersville, MD).
Cell Culture. All cells were maintained in an incubator at 37 degrees C and 5% CO2 with 95% humidity. The PDC lines were cultured according to standard operating procedures established by the NCI PDMR (https://pdmr.cancer.gov). Briefly all PDCs were thawed and cultured in Matrigel-coated flasks prepared with a working solution of 1X Ham's F-12 nutrient mix, without supplementation (Invitrogen, Waltham, MA, cat. 11765054), 100 U/mL penicillin-streptomycin (Invitrogen, cat. 15140122), and 2.5% Matrigel (Corning Inc., Corning, NY, cat. 354248) for the first three passages. […]
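Note: seven day compound exposure before luminescent viability read.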
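Throughout, for viability, T/C: 100% = DMSO vehicle control wells.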

Row | SMILES | IC50 | viability, T/C (compound 0.000316 µM) | viability, T/C (compound 0.001 µM) | viability, T/C (compound 0.00316 µM) | viability, T/C (compound 0.01 µM) | viability, T/C (compound 0.0316 µM) | viability, T/C (compound 0.1 µM) | viability, T/C (compound 0.316 µM) | viability, T/C (compound 1 µM) | viability, T/C (compound 3.16 µM) | viability, T/C (compound 10 µM) | viability, T/C (compound 0.00949 µM) | viability, T/C (compound 0.03 µM) | viability, T/C (compound 0.0949 µM) | viability, T/C (compound 0.3 µM) | viability, T/C (compound 0.949 µM) | viability, T/C (compound 3 µM) | viability, T/C (compound 0.000949 µM) | viability, T/C (compound 0.003 µM)
1 | CC(C)CC(NC(=O)C(Cc1ccccc1)NC(=O)c1cnccn1)B(O)O (configuration not stated) | < 0.316 nM | 18.8% and 20.7% | 0.9% and 1.54% | 0.34% and 1.04% | 0.42% and 0.8% | 0.19% and 0.21% | 0.21% |  |  |  |  |  |  |  |  |  |  |  | 
2 | CC(C)CC(NC(=O)CNC(=O)c1cc(Cl)ccc1Cl)B1OC(=O)CC(CC(=O)O)(C(=O)O)O1 (configuration not stated) | 5.86 nM and 5.94 nM | 99.1% and 96.2% | 113% and 105% | 87.8% and 85.7% | 17% and 20.2% | 6.27% and 3.15% | 0.79% and 0.83% |  |  |  |  |  |  |  |  |  |  |  | 
3 | CCc1c2c(nc3ccc(O)cc13)-c1cc3c(c(=O)n1C2)COC(=O)[C@]3(O)CC | < 0.949 nM |  |  |  |  |  |  |  |  |  |  | 1.25% and 1.31% | 0.84% and 1.16% | 1.07% and 1.04% | 0.92% and 1.24% |  |  | 5.38% and 4.72% | 3.5% and 2.75%
4 | COc1cc(C2c3cc4c(cc3C(OC3OC5COC(C)OC5C(O)C3O)C3COC(=O)C23)OCO4)cc(OC)c1O (configuration not stated) | 39.7 nM and 52.7 nM |  |  |  |  |  |  |  |  |  |  | 91.1% and 92% | 57.8% and 69.4% | 26.8% and 28.4% | 17.8% and 16.7% | 8.57% and 7.24% | 5.06% and 4.06% |  | 
5 | COc1cc(Nc2ncc3c(n2)-c2ccc(Cl)cc2C(c2c(F)cccc2OC)=NC3)ccc1C(=O)O | < 3.16 nM |  |  | 33% and 38.1% | 40.7% and 42.1% | 36% and 39.1% | 30.2% and 37.9% | 27.7% and 29.6% | 16.1% and 17.5% |  |  |  |  |  |  |  |  |  | 

Second part, led by results:

Row | IC50 | SMILES | viability, T/C (compound 0.000316 µM) | viability, T/C (compound 0.001 µM) | viability, T/C (compound 0.00316 µM) | viability, T/C (compound 0.01 µM) | viability, T/C (compound 0.0316 µM) | viability, T/C (compound 0.1 µM) | viability, T/C (compound 0.316 µM) | viability, T/C (compound 1 µM) | viability, T/C (compound 3.16 µM) | viability, T/C (compound 10 µM) | viability, T/C (compound 0.00949 µM) | viability, T/C (compound 0.03 µM) | viability, T/C (compound 0.0949 µM) | viability, T/C (compound 0.3 µM) | viability, T/C (compound 0.949 µM) | viability, T/C (compound 3 µM) | viability, T/C (compound 0.000949 µM) | viability, T/C (compound 0.003 µM)
6 | > 10000 nM | CC(C)c1c(-c2ccccc2)nc2c(C#N)c[nH]n2c1=O |  |  |  |  | 100% and 101% | 97.6% and 101% | 102% and 93.6% | 106% and 98.2% | 102% and 105% | 65.2% and 70.4% |  |  |  |  |  |  |  | 
7 | 2030 nM and 1980 nM | CC1(C)CCC(CN2CCN(c3ccc(C(=O)NS(=O)(=O)c4ccc(NCC5CCOCC5)c([N+](=O)[O-])c4)c(Oc4cnc5[nH]ccc5c4)c3)CC2)=C(c2ccc(Cl)cc2)C1 |  |  |  |  | 105% and 108% | 114% | 110% and 108% | 98.1% and 94.9% | 20% and 19.2% | 0.32% and 0.33% |  |  |  |  |  |  |  | 
8 | < 3.16 nM | CC1COCCN1c1cc(-c2ccnn2C)c2ccnc(-c3ccn[nH]3)c2n1 (configuration not stated) |  |  | 15.4% and 15.1% | 12.8% and 16.4% | 12.4% and 13% | 16.3% and 14.8% | 17.2% and 17.7% | 17.8% and 18.7% |  |  |  |  |  |  |  |  |  | 
9 | 602 nM and 673 nM | CC1COCCN1c1cc(C2(S(C)(=N)=O)CC2)nc(-c2ccnc3[nH]ccc23)n1 (configuration not stated) |  |  |  |  | 104% and 96.3% | 102% and 99.3% | 73.6% and 77.7% | 31.6% and 35.1% | 13.4% and 16.8% | 12.6% and 11.3% |  |  |  |  |  |  |  | 
10 | 1350 nM and 1460 nM | CCN(c1cc(-c2ccc(CN3CCOCC3)cc2)cc(C(=O)NCc2c(C)cc(C)[nH]c2=O)c1C)C1CCOCC1 |  |  |  |  |  |  |  |  |  |  | 100% and 99.5% | 115% and 103% | 99% | 85.1% and 80.7% | 63.7% and 67.6% | 22.2% and 24.3% |  | 
11 | 3.45 nM and 4.11 nM | CC[C@@]1(O)C(=O)OCc2c1cc1n(c2=O)Cc2cc3c(CN(C)C)c(O)ccc3nc2-1 | 96.8% and 95.3% | 79.3% and 94.1% | 54.4% and 57.1% | 21.4% and 21.1% | 9.12% and 10.3% | 4.35% and 3.55% |  |  |  |  |  |  |  |  |  |  |  | 
